Measured values: patent publication US6852332B2, “Liquid vitamin composition” (Adisseo France S.A.S., priority 2000, dated 2005)

Key:
Assay type in all cases: physicochemical
[1] = Stability of second liquid vitamin formulation (Example 1), stored at 40° C., HPLC; conditions: for CONC at T = 0: immediately after preparation; for CONC at T = 1 week / CONC at T = 2 weeks / CONC at T = 3 weeks / CONC at T = 4 weeks: stored at 40° C.
Method: (§1) The stability of each formulation in the composition each was determined over a 4 weeks period. The concentration of vitamin in the formulation was analysed using standard analytical methods (high performance liquid chromatography). The formulations were stored at 40° C. over the test period.

[2] = Stability of third liquid vitamin formulation (vitamin K3, Example 1), stored at 40° C., HPLC
Method: as §1

[3] = Stability of first liquid vitamin formulation (Example 1), stored at 40° C., HPLC; conditions: for CONC at T = 0: immediately after preparation; for CONC at T = 2 weeks / CONC at T = 4 weeks: stored at 40° C.
Method: as §1

[4] = Stability of vitamin A in poultry feed (Example 3), 20° C., 80% humidity, HPLC; conditions: four weeks
Method: A standard poultry feed comprising a digestible carbohydrate, a source of fat, a source of amino acid, vitamins and minerals as detailed in Table 3.1 below was used in this example Two sources of vitamin A are compared. Mixture A contained the vitamin composition in the liquid form according to the present invention whilst mixture B contained the conventional powdered vitamin composition. The vitamin pre-mixes were added to the feed. The stability of vitamin A in both feed samples was determined over a four weeks period. The feeds were stored at 20° C. and under 80% humidity. The concentration of vitamin A in the feed was measured using conventional analytical methods (high performance liquid chromatography).

Row | Compound | CONC at T = 0 [1] | CONC at T = 1 week [1] | CONC at T = 2 weeks [1] | CONC at T = 3 weeks [1] | CONC at T = 4 weeks [1] | CONC at T = 0 [3] | CONC at T = 2 weeks [3] | CONC at T = 4 weeks [3] | further results
1 | Cc1cc2nc3c(=O)[nH]c(=O)nc-3n(C[C@H](O)[C@H](O)[C@H](O)CO)c2cc1C [Vitamin B2, riboflavin] | 1 g % g of solution | 1.08 g % g of solution | 1.04 g % g of solution | 1.04 g % g of solution | 1.01 g % g of solution |  |  |  | 
2 | NC(=O)c1cccnc1 [Vitamin B3, niacinamide] | 8 g % g of solution | 7.98 g % g of solution | 7.8 g % g of solution | 7.85 g % g of solution | 8 g % g of solution |  |  |  | 
3 | CC(C)(CO)[C@@H](O)C(=O)NCCCO [Vitamin B5, dexpanthénol] | 2.63 g % g of solution | 2.64 g % g of solution | 2.65 g % g of solution | 2.64 g % g of solution | 2.69 g % g of solution |  |  |  | 
4 | Cc1ncc(CO)c(CO)c1O.OCl [Vitamin B6, pyridoxine chlorohydrate] | 0.355 g % g of solution | 0.32 g % g of solution | 0.33 g % g of solution | 0.333 g % g of solution | 0.329 g % g of solution |  |  |  | 
5 | O=C(O)CCCC[C@@H]1SC[C@@H]2NC(=O)N[C@@H]21 [Vitamin H, biotine] | 0.021 g % g of solution | 0.022 g % g of solution | 0.02 g % g of solution | 0.021 g % g of solution | 0.021 g % g of solution |  |  |  | 
6 | CC1=CC(=O)c2ccccc2C1=O [Vitamin K3, menadione] |  |  |  |  |  |  |  |  | Stability of vitamin K3 in the third liquid formulation (in words) ([2]; 40° C., 4 weeks): stable; CONC at T = 0 ([2]; third formulation, immediately after preparation): 2.00 g % g of solution; CONC at T = 2 weeks ([2]; third formulation, stored at 40° C., 2 weeks): 1.93 g % g of solution; CONC at T = 4 weeks ([2]; third formulation, stored at 40° C., 4 weeks): 1.92 g % g of solution
7 | Oil of Vitamin A |  |  |  |  |  | 120500 UI/g | 118500 UI/g | 120400 UI/g | Stability of vitamin A in feed, liquid pre-mix versus powdered pre-mix (in words) [4]: as stable in the feed containing the liquid pre-mix as in the conventional powdered pre-mix
8 | Oil of Vitamin D3 |  |  |  |  |  | 56200 UI/g | 56160 UI/g | 52800 UI/g | 
9 | Oil of Vitamin E |  |  |  |  |  | 27.6% | 29.1% | 29.3% | 
10 | Vitamin B12 |  |  |  |  |  | 0.0202% | 0.0165% | 0.0157% | 
